Experimental findings from patent US10576082B2, “ErbB2 regulates autophagic flux to modulate the proteostasis of APP-CTFs in alzheimer's disease” (Academia Sinica, priority 2016, dated 2020) are described below.

The test system of test [1] is APPswe/PS1ΔE9 double transgenic mice. The test is described as follows: Brain Aβ40 and Aβ42 ELISA in treated APPswe/PS1ΔE9 mice. Type of test: in vivo, mouse. As to conditions: 5 mg/kg daily oral, 20 days, normalized to total protein.
Test [2] deals with zebrafish embryos expressing GFP-tagged C99. The test is described as follows: C99-expressing zebrafish model of AD, Western blotting of embryo lysates. Type of test: in vivo. Particulars: treated from 48 hpf to 72 hpf at 28° C. How it is done: (§1) (A) IMR32 cells overexpressing C99-YFP were grown with 2 ml fresh culture medium in 6-well plates, and treated with 1 μM CL-387,785 or DAPT at 37° C. for 24 h. The cell extracts were analyzed by Western blotting. (B) Conditional media were harvested and processed for determination of secreted Aβ40 using a colorimetric Aβ40-specific ELISA kit. (C) C99-YFP-expressing IMR32 cells (160,000 cells/well) were seeded onto 6-well plates and cultured at 37° C. for 24 h, and infected with ErbB1- or ErbB2-targeting shRNA lentivirus for an additional 48 h. Infection mixtures were replaced with 2 ml fresh culture medium, and infected cells were then incubated at 37° C. for an additional 24 h. The cell extracts were analyzed by Western blotting with anti-GFP antibody. (D) The conditioned media were harvested and processed for determination of secreted Aβ40. Data are the mean±SD from three independent experiments, and were analyzed by Student's t-tests. * p<0.05. (E) Schematic presentation of the DNA construct encoding recombinant C99-GFP-P2A-GFP. CMV, human cytomegalovirus promoter; CI, chimeric intron; P2A, porcine teschovirus 2A peptide. […]
Overexpression of APP-C99 zebrafish. […] Clarified lysates containing equal amounts of protein were analyzed by Western blotting.

Test [3] deals with APPswe/PS1ΔE9 double transgenic mice. The test is described as follows: Co-immunoprecipitation (anti-BECN1) of brain lysates of treated APPswe/PS1ΔE9 mice. Type of test: in vivo, mouse.
Test [4] relates to IMR32 neuroblastoma cells overexpressing C99-YFP. Briefly: Secreted Aβ40 ELISA, conditional media of IMR32 cells overexpressing C99-YFP. Type of test: cell-based, human. As to conditions: compound 1 μM, 37° C., 24 h. As for the experimental part:
as §1, with “C99-GFP-P2A-GFP.” for “C99-GFP-P2A-GFP. CMV, human cytomegalovirus promoter; CI, chimeric intron; P2A, porcine teschovirus 2A peptide.”
(§2) Cell-based γ-secretase assays for the nuclear function of AICD or NICD. […] Cellular luminescence was determined by the addition of Steady-Glo Luciferase Assay reagents (PROMEGA™), according to the manufacturer's instructions. […] The level of secreted Aβ40 was quantified using a human Aβ40 sandwich ELISA kit (Invitrogen) according to the manufacturer's instructions.

Test [5] deals with HEK293 cells overexpressing C99-YFP. Briefly: Secreted Aβ40 ELISA, conditional media of HEK293 cells overexpressing C99-YFP. Type of test: cell-based. As to conditions: 1 μM, 37° C., 24 h. How it is done:
Clarified lysates containing equivalent amounts of proteins were analyzed by Western blotting. (B, C) HEK293 overexpressing CFP-LC3 cells were infected with lentivirus encoding shRNA targeting LacZ ErbB2, or ErbB2 plus ATG5 for 48 h. The autophagy induction was analyzed by fluorescence confocal microscopy. The number of CFP-LC3 puncta per cell was quantified. The levels of LC3-I, LC3-II, and GAPDH were analyzed by Western blotting. (D, E) HEK293 cells overexpressing ErbB1, ErbB2, CFP-tagged C99, and YFP-tagged NΔE were infected with lentivirus encoding shRNA targeting LacZ (Ctrl), ErbB1, or ErbB2 for 48 h. […] The levels of LC3-1, LC3-II, and p62 were analyzed by Western blotting and quantified by NIH Image J. Conditional media were harvested and processed for determination of secreted Aβ40 using a colourimetric Aβ40-specific ELISA kit. […] The quantitative data are shown as mean±SD from three independent experiments, and were analyzed by Student's t-tests. * p<0.05.
as §2

For the molecule `CC#CC(=O)Nc1ccc2ncnc(Nc3cccc(Br)c3)c2c1` [CL-387,785, N-[4-[(3-bromophenyl)amino]-6-quinazolinyl]-2-butynamide], in test [1], the “reduction in the level of Aβ40 in brain” value is recorded as “approximately 40%” and the “reduction in the level of Aβ42 in brain” value was “approximately 40%”. Moreover, in test [2], the “level of AICD in embryos” value is “concomitant clearance” and the “level of C99 in embryos” value is reported as “concomitant clearance”. Further, the “phosphorylation of EGFR(ErbB1) in brain” value in test [3] (5 mg/kg daily oral, 20 days) is listed as “inhibited”. The “interaction between ErbB2 with Beclin-1 in brain” value in test [3] (5 mg/kg daily oral, 20 days, co-immunoprecipitation) is “drastically suppressed”. For the same molecule, the “formation of the Beclin1-Vps34-Vps15 complex” value in test [3] (summary statement for the compound (FIG. 7)) was “rescues the formation”. Moreover, the “level of secreted Aβ40” value in test [4] is given as “significantly reduced”. The “secreted Aβ40 production” value in test [5] was “effectively decreased”.
